Results published in patent publication US12264173B2 (GILEAD SCIENCES, INC., priority 2020, dated 2025).
Like-named read-outs stand apart in the source and are kept apart here.

Tests used:
Assay type in all cases: cell-based
RSV strain A2 = experiment: microbe, parasite or virus in culture; conditions: read-out: RSV HEp-2 EC50
In short: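 Cytopathic-effect protection assay: HEp-2 cells (50,000/mL) infected with pre-titered RSV A2 onto 3-fold serial compound dilutions, incubated 4 days at 37° C. Cell viability read by CellTiter-Glo luminescence; percent inhibition derived against 0% and 100% virus-inhibition controls.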

RSV A2 = experiment: RSV NHBE EC50 (RSV A2 antiviral assay in NHBE cells); conditions: read-out: RSV NHBE EC50
In short: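 Primary bronchial epithelial cells attach overnight, receive 3-fold serial compound dilutions, and are infected with RSV A2 at 1×10^4.5 tissue culture infectious doses/mL. Protection from virus-induced cell death is scored by luminescent viability assay after 4 days.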

HRV16 = HRV16 HeLa EC50 (cytopathic effect in H1-HeLa cells); conditions: read-out: HRV16 HeLa EC50
In short: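 H1-HeLa cells seeded one day before, given 3-fold serial compound dilutions in triplicate just prior to infection with pre-titrated virus. Incubated 96 h at 33 °C/5% CO2; protection from cytopathic effect read as viability by CellTiter-Glo luminescence, normalised to infected untreated (0%) and uninfected (100%) controls.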

DENV2 replicon = experiment: DENV-2 Huh-7 Rep EC50 (replicon luminescence)
In short: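 Huh-7 cells carrying a DENV2 replicon, 5,000 cells/well, were incubated with dosed compounds for 48 h at 37° C. EnduRen live-cell substrate was added 1.5 h before luminescence reading. EC50 came from dose-response against DMSO-only wells.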

[1] = human respiratory syncytial virus, HEp-2, 96 h, Table 3, HEp-2 cells, RSV A2, 4 days
[2] = human respiratory syncytial virus, HEp-2, Table 5 comparative activity, 2',3'-OH vs -OC(O)iPr
[3] = human respiratory syncytial virus, NHBE, 96 h, Table 3, NHBE cells, RSV A2, 4 days
[4] = human respiratory syncytial virus, NHBE, Table 5 comparative activity, 2',3'-OH vs -OC(O)iPr
[5] = 96 h, Table 3, H1-HeLa cells, 96 h
[6] = HeLa, Table 5 comparative activity, 2',3'-OH vs -OC(O)iPr
[7] = Dengue virus, DENV2, Huh-7, 48 h, read-out: DENV-2 REP Huh7 EC50, Table 3, Huh-7 DENV2 replicon cells, 48 hours
[8] = Dengue virus, DENV2, Huh-7, 48 h, read-out: DENV-2 REP Huh7 EC50
[9] = Table 3, HEp-2 cells, RSV A2, 4 days
[10] = Table 3, NHBE cells, RSV A2, 4 days
[11] = Table 3, Huh-7 DENV2 replicon cells, 48 hours, read-out: DENV-2 REP Huh7 EC50

For CCOC(=O)[C@H](C)NP(=O)(N[C@@H](C)C(=O)OCC)OC[C@@]1(C#N)O[C@@H](c2ccc3c(N)ncnn23)[C@H](OC(=O)C(C)C)[C@@H]1OC(=O)C(C)C [Example 137, ((2R,3S,4R,5S)-5-(4-aminopyrrolo[2,1-f][1,2,4]triazin-7-yl)-2-cyano-3,4-diisobutylatetetrahydrofuran-2-yl)methyl bis-ethyl L-alaninate phosphate], the EC50 (RSV strain A2; [1]) was 467 nM, the EC50 (RSV strain A2; [2]) was 467 nM and the EC50 (RSV A2; [3]) was 65 nM. It also gave an EC50 (RSV A2; [4]) of 65 nM, an EC50 (HRV16; [5]) of 1040 nM and an EC50 (HRV16; [6]) of 1040 nM. The EC50 (DENV2 replicon; [7]) was 38400 nM.
In the case of CC(C)C(=O)O[C@H]1[C@H](c2ccc3c(N)ncnn23)O[C@](C#N)(CO[P@@](=O)(N[C@@H](C)C(=O)O[C@H]2CC[C@H](C(F)(F)F)CC2)Oc2ccccc2)[C@H]1OC(=O)C(C)C [Example 79, (2R,3S,4S,5S)-5-(4-Aminopyrrolo[2,1-f][1,2,4]triazin-7-yl)-2-cyano-2-((((S)-(((S)-1-oxo-1-((trans-4-(trifluoromethyl)cyclohexyl)oxy)propan-2-yl)amino) (phenoxy)phosphoryl)oxy)methyl)tetrahydrofuran-3,4-diyl bis(2-methylpropanoate)], the EC50 (RSV strain A2; [1]) is reported as 105 nM, the EC50 (RSV A2; [3]) is reported as 19 nM and the EC50 (HRV16; [5]) is reported as 217 nM. The EC50 (DENV2 replicon; [8]) was 12400 nM.
Work on CC(C)OC(=O)[C@H](C)N[P@](=O)(OC[C@@]1(C#N)O[C@@H](c2ccc3c(N)ncnn23)[C@H](OC(=O)C(C)C)[C@@H]1OC(=O)C(C)C)Oc1ccccc1 [Example 84, (2R,3S,4S,5S)-5-(4-aminopyrrolo[2,1-f][1,2,4]triazin-7-yl)-2-cyano-2-((((S)-(((S)-1-isopropoxy-1-oxopropan-2-yl)amino)(phenoxy)phosphoryl)oxy)methyl) tetrahydrofuran-3,4-diyl bis(2-methylpropanoate)] yielded an EC50 (RSV strain A2; [1]) of 58 nM, an EC50 (RSV A2; [3]) of 16 nM and an EC50 (HRV16; [5]) of 121 nM. The EC50 (DENV2 replicon; [8]) was 13000 nM.
For CC(C)C(=O)O[C@H]1[C@H](c2ccc3c(N)ncnn23)O[C@](C#N)(COP(=O)(N[C@@H](C)C(=O)O[C@H]2CC[C@H](N)CC2)Oc2ccccc2)[C@H]1OC(=O)C(C)C (stereo partly drawn) [Example 136, (2R,3S,4S,5S)-2-((((((S)-1-(((1r,4S)-4-aminocyclohexyl)oxy)-1-oxopropan-2-yl)amino)(phenoxy)phosphoryl)oxy)methyl)-5-(4-aminopyrrolo[2,1-f][1,2,4]triazin-7-yl)-2-cyanotetrahydrofuran-3,4-diyl bis(2-methylpropanoate)], the EC50 (RSV strain A2; [1]) was 2950 nM, the EC50 (RSV A2; [3]) was 244 nM and the EC50 (HRV16; [5]) was 15000 nM. The EC50 (DENV2 replicon; [8]) was 38200 nM.
For CCC(=O)O[C@H]1[C@H](c2ccc3c(N)ncnn23)O[C@](C#N)(COP(=O)(N[C@@H](C)C(=O)OC2COC2)Oc2ccccc2)[C@H]1OC(=O)CC (single isomer, unassigned) [Example 176], the EC50 (RSV strain A2; [9]) was 182 nM, the EC50 (RSV A2; [10]) was 16 nM and the EC50 (HRV16; Table 3, H1-HeLa cells, 96 h) was 142 nM. It also gave an EC50 (DENV2 replicon; [11]) of 9440 nM.
Molecule CCC(=O)O[C@H]1[C@H](c2ccc3c(N)ncnn23)O[C@](C#N)(CO[P@](=O)(N[C@@H](C)C(=O)OCC2CCOCC2)Oc2ccccc2)[C@H]1OC(=O)CC [Example 109] has an EC50 (RSV strain A2; [9]) of 103 nM, an EC50 (RSV A2; [10]) of 32 nM and an EC50 (HRV16; Table 3, H1-HeLa cells, 96 h) of 379 nM. It also gave an EC50 (DENV2 replicon; [11]) of 26300 nM.
Work on CC(C)C(=O)O[C@H]1[C@H](c2ccc3c(N)ncnn23)O[C@](C#N)(COP(=O)(N[C@@H](C)C(=O)OC2COC2)Oc2ccccc2)[C@H]1OC(=O)C(C)C (stereo partly drawn) [Example 184, (2R,3S,4S,5S)-5-(4-aminopyrrolo[2,1-f][1,2,4]triazin-7-yl)-2-cyano-2-((((((S)-1-(oxetan-3-yloxy)-1-oxopropan-2-yl)amino)(phenoxy)phosphoryl)oxy)methyl) tetrahydrofuran-3,4-diyl bis(2-methylpropanoate)] yielded an EC50 (RSV strain A2; [1]) of 79 nM, an EC50 (RSV strain A2; [2]) of 79 nM and an EC50 (RSV A2; [3]) of 13 nM. It also gave an EC50 (RSV A2; [4]) of 13 nM, an EC50 (HRV16; [5]) of 57 nM and an EC50 (HRV16; [6]) of 57 nM. The EC50 (DENV2 replicon; [8]) was 5960 nM.
CCC(CC)COC(=O)[C@H](C)NP(=O)(N[C@@H](C)C(=O)OCC(CC)CC)OC[C@@]1(C#N)O[C@@H](c2ccc3c(N)ncnn23)[C@H](OC(C)=O)[C@@H]1OC(C)=O [Example 114, (2R,3S,4S,5S)-5-(4-Aminopyrrolo[2,1-f][1,2,4]triazin-7-yl)-2-cyano-2-((((((S)-1-(2-ethylbutoxy)-1-oxopropan-2-yl)amino)(((2S)-1-(2-ethylbutoxy)-1-oxopropan-2-yl)amino)phosphoryl)oxy)methyl)tetrahydrofuran-3,4-diyl diacetate] gave an EC50 (RSV strain A2; [1]) of 1660 nM, an EC50 (RSV A2; [3]) of 201 nM and an EC50 (HRV16; [5]) of 3850 nM. It also gave an EC50 (DENV2 replicon; [7]) of 26300 nM.
